Counter-ions that a name gives are not always drawn.
How the values were obtained:
[1] = target: T1, PDGFRβ (Homo sapiens, UniProt P09619); assay: PDGFRβ cell-based assay (phospho-PDGFRβ ELISA, transfected CHO cells); settings: compound at 100 nM, read-out: % PDGFRβ kinase activity remains
T1 construct: expressed in transfected cells; host or cells: CHO cells, pcDNA3.1 plasmid
Experimental: A standard cell-based assay for PDGFRβ kinase activity can be used to test a compound of this invention and to identify PDGFRβ antagonists.
Specifically, a compound to be tested was first dissolved in DMSO to a concentration of 10 mM and stored at −20° C. The activity of PDGFRβ in cells depends on the phosphorylation level of its intracellular domain induced by the ligand. In order to express PDGFRβ in the cell, full length PDGFRβ sequence was cloned into PC-DNA3.1 vector. The plasmid was then transfected into CHO cells. After 48 hours following the transfection, the expression of PDGFRβ in transfected CHO cells was confirmed by regular western blotting.
To screen the compound of this invention, the ELISA kit (R&D Systems, Minneapolis, Minn., USA) was used. One day before the screening, CHO cells transfected with full length PDGFRβ plasmid were grown in DMEM medium without the presence of serum. On the day of screening, various concentrations of compounds (from 0.5 nM to 500 nM) were added into DMEM medium. Two hours later, 20% of FBS (Fetal Bovine Serum) was added into the medium to stimulate the expression of phosphor-PDGFRβ. Cell lysate from approximately 5×10^5 transfected CHO cells were reacted with anti-phosphor-PDGFRβ or anti-total PDGFRβ antibody in 96 well plates, in the presence of detection antibody, the phosphor-PDGFRβ or total PDGFRβ were detected with Streptavidin-HRP (R&D Systems), followed by chemiluminescent detection.

[2] = target: T2, c-Met (Homo sapiens, UniProt P08581); assay: c-Met cell-based assay (phospho-c-Met ELISA, A549 cells); settings: compound at 100 nM
T2 construct: endogenous in cells; host or cells: A549 cells
T2 sequence (P08581 25-1390): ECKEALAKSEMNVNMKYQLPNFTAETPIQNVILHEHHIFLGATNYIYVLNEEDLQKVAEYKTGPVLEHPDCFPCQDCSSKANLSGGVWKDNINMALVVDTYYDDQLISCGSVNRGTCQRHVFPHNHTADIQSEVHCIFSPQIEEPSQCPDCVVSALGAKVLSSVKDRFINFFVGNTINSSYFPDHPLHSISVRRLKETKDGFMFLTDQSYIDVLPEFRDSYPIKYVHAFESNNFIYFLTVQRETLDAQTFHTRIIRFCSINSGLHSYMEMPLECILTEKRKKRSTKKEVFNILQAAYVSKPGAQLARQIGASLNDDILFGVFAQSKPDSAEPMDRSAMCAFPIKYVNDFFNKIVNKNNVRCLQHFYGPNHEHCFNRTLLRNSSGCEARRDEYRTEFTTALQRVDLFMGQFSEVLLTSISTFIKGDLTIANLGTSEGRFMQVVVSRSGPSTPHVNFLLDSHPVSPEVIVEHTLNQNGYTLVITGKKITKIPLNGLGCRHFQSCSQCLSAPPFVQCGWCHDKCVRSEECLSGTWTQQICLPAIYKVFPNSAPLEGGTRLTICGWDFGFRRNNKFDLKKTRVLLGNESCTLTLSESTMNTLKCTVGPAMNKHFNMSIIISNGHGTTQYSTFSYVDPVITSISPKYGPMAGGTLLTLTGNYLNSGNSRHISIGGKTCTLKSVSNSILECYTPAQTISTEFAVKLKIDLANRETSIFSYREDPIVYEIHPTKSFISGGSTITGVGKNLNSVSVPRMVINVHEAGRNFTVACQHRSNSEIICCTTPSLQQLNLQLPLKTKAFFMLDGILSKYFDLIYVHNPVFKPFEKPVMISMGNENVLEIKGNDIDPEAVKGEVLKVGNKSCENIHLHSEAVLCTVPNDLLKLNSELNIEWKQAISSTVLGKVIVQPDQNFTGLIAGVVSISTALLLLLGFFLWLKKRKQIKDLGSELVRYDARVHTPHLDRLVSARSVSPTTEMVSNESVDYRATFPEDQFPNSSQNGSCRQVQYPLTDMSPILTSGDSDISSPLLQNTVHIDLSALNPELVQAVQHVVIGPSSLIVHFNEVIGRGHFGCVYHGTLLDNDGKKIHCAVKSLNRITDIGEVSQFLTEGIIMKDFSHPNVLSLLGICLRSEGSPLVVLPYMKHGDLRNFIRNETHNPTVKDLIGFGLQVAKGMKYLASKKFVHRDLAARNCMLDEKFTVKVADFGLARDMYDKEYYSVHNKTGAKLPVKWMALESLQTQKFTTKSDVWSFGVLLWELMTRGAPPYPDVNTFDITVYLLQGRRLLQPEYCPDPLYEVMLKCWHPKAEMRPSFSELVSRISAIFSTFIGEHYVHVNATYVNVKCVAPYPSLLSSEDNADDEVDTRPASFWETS
Experimental: A procedure for standard cell-based assay for c-Met kinase activity can be used to test compounds of this invention for their inhibitory effect on this kinase and to identify c-Met antagonists.
Specifically, a compound to be tested was first dissolved in DMSO to a concentration of 10 mM and stored at −20° C. The activity of c-Met in cells depends on the phosphorylation level at its intracellular domain induced by its ligand, Hepatocyte growth factor (HGF). In order to induce the cells to produce phosphate c-Met, paracrine HGF-dependent NSCLC (None Small Cell Lung Cancer) A549 cells were grown in DMEM with 10% FBS.
To screen compounds of this invention for their inhibitory effect on c-Met kinase, the ELISA kit (R&D Systems) was used. One day before screening procedure, A549 cells were grown in DMEM without the presence of serum. On the day of screening procedure, various concentrations of compounds (from 0.5 nM to 500 nM) were added into the culture medium. Two hours later, 20% of FBS (Fetal Bovine Serum) was added into the medium to stimulate the expression of phosphor-c-Met. After 20 minutes, cell lysate from approximately 5×10^5 A549 cells were reacted with anti-phosphor-c-Met or anti total c-Met antibody in 96 well plates. In the presence of detection antibody, the phosphor-c-Met or total c-Met can be detected with Streptavidin-HRP (R&D Systems) followed by chemiluminescence detection.

[3] = target: T3, VEGFR2 (Homo sapiens, UniProt P35968); assay: VEGFR2 cell-based assay (phospho-VEGFR2 ELISA, transfected CHO cells); settings: compound at 100 nM, read-out: % VEGFR2 kinase activity remains
T3 construct: expressed in transfected cells; host or cells: CHO cells, pcDNA3.1 plasmid
T3 sequence (P35968 20-1356, species assumed): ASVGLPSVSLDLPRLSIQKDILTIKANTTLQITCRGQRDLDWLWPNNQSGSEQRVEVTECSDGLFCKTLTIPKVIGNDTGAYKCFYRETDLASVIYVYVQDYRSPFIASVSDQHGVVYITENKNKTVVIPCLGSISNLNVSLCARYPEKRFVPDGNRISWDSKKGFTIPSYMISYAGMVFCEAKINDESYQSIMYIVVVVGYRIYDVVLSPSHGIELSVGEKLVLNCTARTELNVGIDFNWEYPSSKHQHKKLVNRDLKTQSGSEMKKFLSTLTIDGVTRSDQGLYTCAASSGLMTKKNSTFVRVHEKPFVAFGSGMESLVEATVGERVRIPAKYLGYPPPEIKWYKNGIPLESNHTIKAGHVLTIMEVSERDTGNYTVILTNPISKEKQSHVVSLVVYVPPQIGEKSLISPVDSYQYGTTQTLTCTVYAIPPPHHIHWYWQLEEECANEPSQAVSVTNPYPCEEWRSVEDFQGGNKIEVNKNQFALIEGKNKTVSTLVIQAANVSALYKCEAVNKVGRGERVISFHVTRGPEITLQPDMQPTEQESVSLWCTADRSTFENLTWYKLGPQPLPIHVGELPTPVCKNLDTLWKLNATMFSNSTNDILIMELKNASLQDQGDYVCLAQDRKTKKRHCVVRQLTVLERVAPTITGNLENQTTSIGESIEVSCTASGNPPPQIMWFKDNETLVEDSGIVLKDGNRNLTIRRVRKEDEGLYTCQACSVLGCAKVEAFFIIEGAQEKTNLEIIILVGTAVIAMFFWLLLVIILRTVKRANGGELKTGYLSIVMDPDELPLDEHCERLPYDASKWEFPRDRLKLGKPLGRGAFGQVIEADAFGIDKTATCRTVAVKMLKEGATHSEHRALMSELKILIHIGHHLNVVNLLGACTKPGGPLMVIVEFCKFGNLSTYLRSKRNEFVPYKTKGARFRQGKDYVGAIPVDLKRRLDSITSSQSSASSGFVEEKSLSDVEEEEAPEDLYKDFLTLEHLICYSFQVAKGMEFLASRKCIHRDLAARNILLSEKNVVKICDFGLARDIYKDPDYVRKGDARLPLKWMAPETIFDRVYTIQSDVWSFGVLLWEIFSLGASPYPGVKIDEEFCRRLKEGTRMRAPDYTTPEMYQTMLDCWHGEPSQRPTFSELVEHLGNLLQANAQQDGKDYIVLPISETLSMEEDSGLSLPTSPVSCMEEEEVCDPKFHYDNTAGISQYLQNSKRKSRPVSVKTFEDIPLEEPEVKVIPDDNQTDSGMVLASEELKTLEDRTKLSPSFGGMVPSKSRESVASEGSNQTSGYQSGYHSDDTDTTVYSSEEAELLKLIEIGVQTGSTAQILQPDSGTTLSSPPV
Experimental: A standard cell-based assay for VEGFR2 kinase activity can be used to test compounds of this invention and to identify VEGFR2 antagonists.
Specifically, a compound to be tested was first dissolved in DMSO to a concentration of 10 mM and stored at −20° C. The activity of VEGFR2 in cells depends on the phosphorylation level at its intracellular domain induced by the ligand. In order to express VEGFR2 in the cells, full length VEGFR2 sequence was cloned into PC-DNA3.1 vector, the plasmid was then transfected into CHO cells. After 48 hours, the expression of VEGFR2 in transfected CHO cells was confirmed by regular western blotting.
To screen the compounds of this invention, the ELISA kit (R&D Systems) was used. One day before the screening, CHO cells transfected with full length VEGFR2 plasmid were grown in DMEM medium without the presence of serum. On the day of screening, various concentrations of compounds (From 0.5 nM to 500 nM) were added into DMEM medium. Two hours later, 20% of FBS (Fetal Bovine Serum) was added into the medium to stimulate the production of phosphor-VEGFR2. Cell lysate from approximately 5×10^5 transfected CHO cells were reacted with anti-phosphor-VEGFR2 or anti-total VEGFR2 antibody in 96 well plates. In the presence of detection antibody, the phosphor-VEGFR2 or total VEGFR2 were detected with Streptavidin-HRP (R&D Systems) followed by chemiluminescence detection.

T1 sequence (P09619 33-1106, species assumed): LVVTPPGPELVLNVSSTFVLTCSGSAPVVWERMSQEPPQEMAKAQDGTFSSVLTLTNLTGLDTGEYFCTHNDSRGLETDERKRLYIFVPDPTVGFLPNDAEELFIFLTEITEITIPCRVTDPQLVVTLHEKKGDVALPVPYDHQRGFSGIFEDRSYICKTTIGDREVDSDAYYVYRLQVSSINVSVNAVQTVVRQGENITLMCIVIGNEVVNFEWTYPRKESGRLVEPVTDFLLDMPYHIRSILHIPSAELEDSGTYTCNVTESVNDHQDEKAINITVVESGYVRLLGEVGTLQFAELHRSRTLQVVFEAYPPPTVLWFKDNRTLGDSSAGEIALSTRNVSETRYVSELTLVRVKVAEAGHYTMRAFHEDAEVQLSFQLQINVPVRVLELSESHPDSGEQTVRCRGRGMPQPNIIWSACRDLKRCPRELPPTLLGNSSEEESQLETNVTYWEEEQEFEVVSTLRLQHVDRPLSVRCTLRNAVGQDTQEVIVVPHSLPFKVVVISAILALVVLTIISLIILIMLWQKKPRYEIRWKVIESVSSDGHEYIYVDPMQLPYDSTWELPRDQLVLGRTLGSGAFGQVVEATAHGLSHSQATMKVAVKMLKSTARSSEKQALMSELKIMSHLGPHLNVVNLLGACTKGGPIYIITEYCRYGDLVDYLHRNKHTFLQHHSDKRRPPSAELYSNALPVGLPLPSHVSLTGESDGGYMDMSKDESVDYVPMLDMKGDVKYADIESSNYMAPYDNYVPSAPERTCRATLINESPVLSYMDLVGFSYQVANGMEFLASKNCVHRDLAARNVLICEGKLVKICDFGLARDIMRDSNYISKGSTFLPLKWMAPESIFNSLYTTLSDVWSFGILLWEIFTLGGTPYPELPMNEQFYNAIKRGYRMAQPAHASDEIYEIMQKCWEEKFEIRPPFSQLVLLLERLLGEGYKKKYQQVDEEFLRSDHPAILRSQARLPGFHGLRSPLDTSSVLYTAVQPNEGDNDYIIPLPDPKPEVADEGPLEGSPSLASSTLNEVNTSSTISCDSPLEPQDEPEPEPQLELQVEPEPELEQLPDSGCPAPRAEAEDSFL

| SMILES | remaining activity at 0.1 µM [1] | remaining activity at 0.1 µM [3] | % c-Met kinase activity remains [2] |
| --- | --- | --- | --- |
| Cl.N#Cc1ccc(NC(=O)Nc2cccc3c2ccn3Cc2ccnc3[nH]ccc23)cc1 [Example 54, 1-(4-Cyanophenyl)-3-[1-(1H-pyrrolo[2,3-b]pyridin-4-ylmethyl)-1H-indol-4-yl]urea hydrochloride] | ≥ 70% | ≥ 70% | B (the percentage is greater or equal to 70%) |
| Cl.O=C(Nc1ccc(C(F)(F)F)cc1)Nc1cccc2c1ccn2Cc1ccnc2[nH]ccc12 [Example 52, 1-(4-Trifluoromethylphenyl)-3-[1-(1H-pyrrolo[2,3-b]pyridin-4-ylmethyl)-1H-indol-4-yl]urea hydrochloride] | ≥ 70% | < 70% | B (the percentage is greater or equal to 70%) |
| O=C(Nc1ccccc1C(F)(F)F)Nc1cccc2c1ccn2Cc1ccnc2[nH]ccc12 [Example 50, 1-(2-Trifluoromethylphenyl)-3-[1-(1H-pyrrolo[2,3-b]pyridin-4-ylmethyl)-1H-indol-4-yl]urea hydrochloride] | ≥ 70% |  |  |
| Cl.O=C(Nc1ccc(F)cc1)Nc1cccc2c1ccn2Cc1ccnc2[nH]ccc12 [Example 36, 1-(4-Fluorophenyl)-3-[1-(1H-pyrrolo[2,3-b]pyridin-4-ylmethyl)-1H-indol-4-yl]urea hydrochloride] | ≥ 70% | < 70% | A (the percentage of kinase activity remains is below 70%) |
| Cl.O=C(Nc1ccc(Cl)cc1F)Nc1cccc2c1ccn2Cc1ccnc2[nH]ccc12 [Example 55, 1-(2-Fluoro-4-chlorophenyl)-3-[1-(1H-pyrrolo[2,3-b]pyridin-4-ylmethyl)-1H-indol-4-yl]urea hydrochloride] | ≥ 70% | < 70% | B (the percentage is greater or equal to 70%) |
| Cl.O=C(Nc1cccc(Br)c1)Nc1cccc2c1ccn2Cc1ccnc2[nH]ccc12 [Example 41, 1-(3-Bromophenyl)-3-[1-(1H-pyrrolo[2,3-b]pyridin-4-ylmethyl)-1H-indol-4-yl]urea hydrochloride] |  | ≥ 70% | B (the percentage is greater or equal to 70%) |
| N#Cc1cccc(NC(=O)Nc2cccc3c2ccn3Cc2ccnc3[nH]ccc23)c1 [Example 53, 1-(3-Cyanophenyl)-3-[1-(1H-pyrrolo[2,3-b]pyridin-4-ylmethyl)-1H-indol-4-yl]urea hydrochloride] | ≥ 70% |  |  |
| Cl.O=C(Nc1ccccc1Br)Nc1cccc2c1ccn2Cc1ccnc2[nH]ccc12 [Example 40, 1-(2-Bromophenyl)-3-[1-(1H-pyrrolo[2,3-b]pyridin-4-ylmethyl)-1H-indol-4-yl]urea hydrochloride] |  | < 70% | A (the percentage of kinase activity remains is below 70%) |
| COc1ccc(NC(=O)Nc2cccc3c2ccn3Cc2c[nH]c3ncccc23)cc1.Cl [Example 19, 1-(4-Methoxyphenyl)-3-[1-(1H-pyrrolo[2,3-b]pyridin-3-ylmethyl)-1H-indol-4-yl]urea hydrochloride] |  | < 70% | A (the percentage of kinase activity remains is below 70%) |
| Cc1cccc(NC(=O)Nc2cccc3c2ccn3Cc2c[nH]c3ncccc23)c1.Cl [Example 15, 1-(3-Methylphenyl)-3-[1-(1H-pyrrolo[2,3-b]pyridin-3-ylmethyl)-1H-indol-4-yl]urea hydrochloride] |  | < 70% | A (the percentage of kinase activity remains is below 70%) |
| Cl.O=C(Nc1ccccc1)Nc1cccc2c1ccn2Cc1ccnc2[nH]ccc12 [Example 33, 1-Phenyl-3-[1-(1H-pyrrolo[2,3-b]pyridin-4-ylmethyl)-1H-indol-4-yl]urea hydrochloride] |  | < 70% | B (the percentage is greater or equal to 70%) |
| COc1ccccc1NC(=O)Nc1cccc2c1ccn2Cc1ccnc2[nH]ccc12.Cl [Example 46, 1-(2-Methoxyphenyl)-3-[1-(1H-pyrrolo[2,3-b]pyridin-4-ylmethyl)-1H-indol-4-yl]urea hydrochloride] |  | ≥ 70% | B (the percentage is greater or equal to 70%) |

Further lines, with some results ahead:

| remaining activity at 0.1 µM [1] | remaining activity at 0.1 µM [3] | SMILES | % c-Met kinase activity remains [2] |
| --- | --- | --- | --- |
| ≥ 70% |  | COc1ccc(F)c(NC(=O)Nc2cccc3c2ccn3Cc2c[nH]c3ncccc23)c1 [Example 31, 1-(2-Fluoro-5-methoxyphenyl)-3-[1-(1H-pyrrolo[2,3-b]pyridin-3-ylmethyl)-1H-indol-4-yl]urea hydrochloride] |  |
| ≥ 70% | ≥ 70% | Cl.O=C(Nc1ccc(Br)cc1)Nc1cccc2c1ccn2Cc1c[nH]c2ncccc12 [Example 13, 1-(4-Bromophenyl)-3-[1-(1H-pyrrolo[2,3-b]pyridin-3-ylmethyl)-1H-indol-4-yl]urea hydrochloride] | A (the percentage of kinase activity remains is below 70%) |
| ≥ 70% | < 70% | Cl.O=C(Nc1cc(Br)ccc1F)Nc1cccc2c1ccn2Cc1c[nH]c2ncccc12 [Example 30, 1-(2-Fluoro-5-bromophenyl)-3-[1-(1H-pyrrolo[2,3-b]pyridin-3-ylmethyl)-1H-indol-4-yl]urea hydrochloride] | B (the percentage is greater or equal to 70%) |
| ≥ 70% | < 70% | Cl.O=C(Nc1cccc(Br)c1)Nc1cccc2c1ccn2Cc1c[nH]c2ncccc12 [Example 12, 1-(3-Bromophenyl)-3-[1-(1H-pyrrolo[2,3-b]pyridin-3-ylmethyl)-1H-indol-4-yl]urea hydrochloride] | A (the percentage of kinase activity remains is below 70%) |
| ≥ 70% | < 70% | Cl.O=C(Nc1cc(Cl)ccc1F)Nc1cccc2c1ccn2Cc1c[nH]c2ncccc12 [Example 29, 1-(2-Fluoro-5-chlorophenyl)-3-[1-(1H-pyrrolo[2,3-b]pyridin-3-ylmethyl)-1H-indol-4-yl]urea hydrochloride] | B (the percentage is greater or equal to 70%) |
|  | ≥ 70% | Cl.O=C(Nc1ccccc1F)Nc1cccc2c1ccn2Cc1c[nH]c2ncccc12 [Example 5, 1-(2-Fluorophenyl)-3-[1-(1H-pyrrolo[2,3-b]pyridin-3-ylmethyl)-1H-indol-4-yl]urea hydrochloride] | A (the percentage of kinase activity remains is below 70%) |
|  | < 70% | Cl.O=C(Nc1cccc(F)c1)Nc1cccc2c1ccn2Cc1c[nH]c2ncccc12 [Example 6, 1-(3-Fluorophenyl)-3-[1-(1H-pyrrolo[2,3-b]pyridin-3-ylmethyl)-1H-indol-4-yl]urea hydrochloride] | B (the percentage is greater or equal to 70%) |
